Legend:
p-Smad2/3 = assay: TGF-β-induced p-Smad2/3 and Smad4 translocation into nucleus (Western blot, immunocytostaining); assay type: cell-based
Source text: Translocation of phosphorylated Smad complexes into nucleus is one of the key steps in signal transduction of the liver fibrosis. In activated HSC there is an elevated accumulation of p-Smad2/3 and Smad4 in nucleus. To understand how PL regulates Smad signaling pathway, we first determined the amount of Smad complexes using Western blot.

collagen (Col 1A2) = assay: Col 1A2 expression, immunostaining of HSC-T6 cells treated with TGF-β and PL; assay type: cell-based; details: HSC-T6 cells treated with TGF-β and 30, 150 or 300 nM PL for 4 hours
Experimental: It has been shown that TGF-β plays a major role in fibrogenesis via the activation of HSC. After the HSC-T6 cells were treated with TGF-β and PL for 4 hours, the cells were subjected to immunostaining and observed under a fluorescence microscopy, as shown in FIG. 4.

[1] = system: [Ca2+]i in TGF-β treated HSC-T6 cells; assay: Measurement of cytosolic Ca2+ ([Ca2+]i) with fura-2; assay type: cell-based; details: HSC-T6 cells treated with PL, then TGF-β1 added; compared with positive control
Experimental: Trypsinized cells (10^6/ml) were recovered 4 h after culture with PL and loaded with 2 μM fura-2/acetoxy methyl (fura-2/AM) for 30 min at 25° C. before stimulating with TGF-β (2ng/ml). Cells were gently shaken for several seconds every 10 min to prevent re-attachment. Cells were washed and resuspended in Ca^2+-containing medium. Fura-2 fluorescence measurements were performed in a water-jacketed cuvette with continuous stirring at 25° C. Fluorescence was monitored with a Hitachi F-2500 fluorescence spectrophotometer by recording excitation signals at), and 380 nm and emission signals at 510 nm at 1-s intervals.
Therefore, we examined whether PL could change the concentration of [Ca^2+]i in TGF-β treated cells. Activation of HSC, the main source of liver collagen, involves the induction of α-SMA, conversing from quiescent to proliferation, and secretion of collagen. After treatment with PL, TGF-β1 was added to HSC-T6 cells and the [Ca^2+]i was measured immediately (FIG. 2). PL decreased the protein levels of α-SMA, which was detected by both flow cytometry and Western blot (FIG. 3). The results imply that a trace amount of PL is sufficient enough to block-[Ca^2+]i and down-regulate α-SMA expression.

Sp1 = Sp1 binding activity (EMSA) in liver of pPK9a-transferred mice fed with ZnSO4 water; assay type: in vivo, mouse; details: TGF-β1-induced increase
Experimental: (§1) The eight-week-old BALB/c mice were fed ad libitum standard laboratory chow and water with or without 25 mM ZnSO4 plus 5% sucrose. PL was given intraperitoneally (i.p.) at 30, 150 or 300 μg/kg. The animals were hydrodynamically injected with pPK9a plasmid containing TGF-β1 gene through tail vein and simultaneously fed with ZnSO4(25 mM) and PL as reported. After 48 h, the mice were sacrificed for liver sections.
(§2) […] of plasmid (pPK9a) was dissolved in 3.0 ml Ringer's solution and injected in bolus into the tail vein in a short duration of 5˜7 seconds according to the hydrodynamics-based transfection protocol as described. ZnSO4(25 mM) was dissolved in the drinking water to activate the metallothionein promoter and stimulate TGF-β1 expression.
Since Sp1 is a critical mediator of Col 1A2 expression, we examined the effects of PL on Sp1 binding activity in pPK9a-transferred mice fed with ZnSO4 water.

α-SMA [2] = assay: α-SMA expression in liver tissue of TGF-β1 transferred fibrotic mice; assay type: in vivo; details: PL i.p. 30, 150 or 300 μg/kg, compared with the positive controls
Experimental: as §1, §2
Mouse liver tissues were embedded in an optimal cutting temperature compound (Miles Inc.) and frozen in liquid nitrogen. […]

α-SMA [3] = assay: α-SMA expression in HSC-T6 cells (flow cytometry and Western blot); assay type: cell-based; details: TGF-β and PL, compared with positive control
Experimental: (§3) Cells were incubated with 2 ng/ml of TGF-β and PL for 5 hours and analyzed for the oxidation state using 7-dichlorodihydrofluorescein diacetate (DCFH-DA) as a fluorogenic probe and flow cytometer (FACSCalibur). The cells were recovered with 0.01% trypsin and the cellular fluorescence intensity was measured after 30 min incubation of 5 μM DCFHDA. For each analysis, 10,000 events were recorded. Cells were collected in 0.01% trypsin, fixed with 3.7% formaldehyde, permeabilized with 0.02% Triton X-100 in PBS, and stained for a-SMA as described previously. For detecting a-SMA using flow cytometry, cells were treated with 2 ng/ml of TGF-β and PL for 12 hours and immunostained with α-SMA-specific antibody (Santa Cruz) and FITC-conjugated secondary antibody (Molecular Probe). Then the cells were recovered and subjected to flow cytometer, and PL can effectively eliminate radicals as ROS decreased with increasing dosages of PL, as referred to FIG. 1.
Liver tissues were homogenized in RIPA buffer and centrifuged as described; supernatant was taken as a whole-cell lysate. […]
Therefore, we examined whether PL could change the concentration of [Ca^2+]i in TGF-β treated cells. […] After treatment with PL, TGF-β1 was added to HSC-T6 cells and the [Ca^2+]i was measured immediately (FIG. 2). PL decreased the protein levels of α-SMA, which was detected by both flow cytometry and Western blot (FIG. 3). […]

[4] = system: TGF-β-induced ROS in HSC-T6 cells; assay: ROS assay on TGF-β1 and PL-treated HSC-T6 cells (DCFH-DA, flow cytometry); assay type: cell-based; details: pretreatment with 30˜300 nM PL, TGF-β1 2 ng/ml
Experimental: as §3
ROS intermediates act as signaling molecules of TGF-β in regulation of inflammatory and fibrotic responses. Therefore, first select marker was to determine whether PL could be an antioxidant to block TGF-β-induced ROS in HSC-T6 cells. The intracellular oxidation state of the cell was analyzed by flow cytometry, when ROS were induced by TGF-β1 (2 ng/ml). […]

In the case of CC1=C(/C=C/C(C)=C/C=C/C(C)=C/C(=O)O)C(C)(C)CCC1 [PL], the “amount of p-Smad2/3 in the cell nucleus” value (p-Smad2/3; Western blot) is reported as “decreased the amount of p-Smad2/3 in the cell nucleus in a dose-dependent manner”, the “transport of p-Smad2/3 into cell nucleus” value (p-Smad2/3; immunocytostaining) is reported as “decreased the transport of p-Smad2/3 into cell nucleus also in a dose-dependent manner” and the “expression of Col 1A2” value (collagen (Col 1A2)) is reported as 0.001%. For the same molecule, the “intracellular calcium [Ca2+]i” value [1] was “significantly reduced”, the Sp1 binding activity (Sp1) was “the increase was reversed by PL treatment” and the “α-SMA expression in liver tissue” value (α-SMA [2]) was “markedly inhibited”. For the same molecule, the α-SMA expression (α-SMA [3]) was “significantly reduced” and the “ROS generated by TGF-β1” value [4] was “sufficiently eliminate the ROS generated by TGF-β1 in a dose-dependent manner”.

Reference: patent publication US20100113596A1, “Method for inhibiting liver fibrosis via retinoic acid derivative” (priority 2008, published 2010)
